Assay [1] can be described thus: Nitroxyl production via N2O quantification (GC headspace analysis). It counts as physicochemical. Conditions: PBS, 37° C. An excerpt: Nitrous oxide (N2O) is produced via the dimerization and dehydration of HNO, and is the most common marker for nitroxyl production (Fukuto et al., Chem. Res. Toxicol. 18:790-801 (2005)). […] Using either nitrous oxide gas or Angeli's salt (AS) as a standard, the relative amounts of N2O released from compounds of the disclosure was examined via gas chromatography (GC) headspace analysis.
A procedure for determining the relative amounts of N2O released from compounds of the disclosure is as follows. GC was performed on an Agilent gas chromatograph equipped with a split injector (10:1 splitting), microelectron capture detector, and a HP-MOLSIV 30 m×0.32 mm×25 μm molecular sieve capillary column. Helium was used as the carrier (4 mL/min) gas and nitrogen was used as the make-up (20 mL/min) gas. The injector oven and the detector oven were kept at 200° C. and 325° C., respectively. All nitrous oxide analyses were performed with the column oven held at a constant temperature of 200° C.
All gas injections were made using an automated headspace analyzer. Vial pressurization was 15 psi. The analyzer's sample oven, sampling valve, and transfer line were kept at 40° C., 45° C., and 50° C., respectively. The oven stabilization, vial pressurization, loop fill, loop equilibration, and sample injection times were 1.00 min., 0.20 min., 0.20 min., 0.05 min., and 1.00 min., respectively.
All determinations used a batch of nominal 20 mL headspace vials with volumes pre-measured for sample uniformity (actual vial volume varied by ≦2.0% relative standard deviation (n=6)). The average vial volume for the batch was determined from six randomly-selected vials by calculating the weight difference between the capped and sealed empty (i.e., air-filled) vial and the capped and sealed deionized water-filled vial using the known density of deionized water, then averaging. Blanks were prepared by sealing and capping two vials then purging each for 20 seconds with a gentle argon stream. […]

For assay [2], the system named is normal canines. Put plainly: Hemodynamic efficacy (PV loop analysis) in normal canines. The format is in vivo, beagle dogs. Conditions: i.v. infusion. As to the method:
The cardiovascular effects of nitroxyl donors were examined by means of pressure-volume (PV) curve (loops) analysis in conscious, sling-restrained beagle dogs. Animals were allowed free access to drinking water and a commercial canine diet under standard laboratory conditions. Fluorescent lighting was provided via an automatic timer for approximately 12 hours per day. On occasion, the dark cycle was interrupted intermittently due to study-related activities. Temperature and humidity were monitored and recorded daily and maintained to the maximum extent possible between 64° F. and 84° F. and 30% to 70%, respectively. The dogs were acclimated for a period of at least 1 week prior to surgery. Following surgery and recovery the animals were acclimated to sling restraint for a period up to 4.5 hours. Animals were fasted overnight prior to surgery.
Once a stable (surgical) plane of anesthesia had been established, a left-thoracotomy was performed (under strict aseptic conditions) and each animal was chronically instrumented with sono-micrometry crystals providing left-ventricular (LV) dimensions/volume. Additionally, a fluid-filled catheter and a solid-state monometer were placed in the left ventricle for pressure monitoring. A fluid-filled catheter was placed in the right ventricle (RV) and the aorta (Ao) for pressure monitoring/test article administration. […] The catheters/wires were aseptically tunneled and externalized between the scapulae. Over the course of the study, fluid-filled catheters were regularly (at least once weekly) flushed with a locking-solution in order to prevent both clotting and bacterial growth (2-3 mL of Taurolidine-Citrate solution, TCS-04; Access Technologies).
The animals (normal or heart failure) were studied during treatment with both vehicle (control) and a nitroxyl donor (either CXL-1020, a compound of formula (1) or a compound of formula (2)). At each dosing period, conscious sling-restrained animals were continuously monitored for up to two to three hours. Following hemodynamic stabilization, infusion of the vehicle was started. […] Infusion of the vehicle was continued and after 30 min another (baseline) set of hemodynamic data was collected. Following collection of baseline hemodynamic data, infusion of the nitroxyl donor compound being tested was initiated and derived hemodynamic/functional parameters were obtained/performed at up to four (4) time points selected from the following: at 30, 60, 90, 120, and 180 minutes after the onset of vehicle/test compound infusion. For the placebo or time-control treatment group, each animal was administered an infusion of an appropriate placebo for up to 180 minutes. In all cases, the test compound was delivered at a constant intravenous infusion rate of 1 mL/kg/hr and was compared at a molar equivalent dose rate.
The resulting left-ventricular pressure and volume data were analyzed in order to generate relationships representing the contractile and energetic state of the myocardium. Systolic arterial pressure (SAP), diastolic arterial pressure (DAP), and mean arterial pressure (MAP) were collected. Left-ventricular mechanical and/or geometrical indices were obtained from the pressure (ESP, EDP, dP/dt max/min, time-constant of relaxation-tau [based on mono-exponential decay with non-zero asymptote]) and volume (end-systolic volume (ESV), end diastolic volume (EDV), stroke volume (SV)) signal. In addition, the following measurements were derived from left-ventricular pressure-volume data (PV loops) generated during brief periods of preload reduction: pressure volume area (PVA) and stroke work (SW), end-systolic (ESPVR) and end-diastolic (EDPVR) pressure volume relationships, and end systolic pressure and stroke volume relationship (arterial elastance (Ea)). Representative data obtained from studies in normal dogs and heart failure dogs is shown in Table 5 and Table 6, respectively. A SVR (systemic vascular resistance) decrease correlates with vasodilation.

[3] abbreviates: dose rate 50 (μmol/kg/min [sic]).

Take `Cc1ccc(S(=O)(=O)NO)o1` [Compound (1), N-Hydroxy-5-methylfuran-2-sulfonamide]: the “Relative N2O Yield (90 minute incubation)” value in assay [1] is 52%. Also, in assay [2] (setting [3]), the “EDV (% Change from Baseline)” value was −6 ± 2%, the “ESP (% Change from Baseline)” value is reported as −18 ± 2%, the “ESPVR (% Change from Baseline)” value is reported as 19 ± 1% and the “HR (% Change from Baseline)” value is on record as −4 ± 2%. Also, in assay [2] (setting [3]), the “PRSW (% Change from Baseline)” value is reported as 12 ± 1%, the “SW (% Change from Baseline)” value is listed as −11 ± 4% and the “Tau (% Change from Baseline)” value was −6 ± 1%.
For the compound `CS(=O)(=O)c1cccc(S(=O)(=O)NO)c1` [(2), N-Hydroxy-3-methanesulfonylbenzene-1-sulfonamide], in assay [1], the “Relative N2O Yield (90 minute incubation)” value came out at 82%. Further, the “Relative N2O Yield (360 minute incubation)” value in assay [1] (360 minute incubation) came to 94%. Further, in assay [2] (dose rate 100 (μmol/kg/min [sic])), the “Tau (% Change from Baseline)” value is −6.40 ± 7.11%.

(Values after patent publication US9586896B2, “Nitroxyl donors with improved therapeutic index” (Cardioxyl Pharmaceuticals, Inc., priority 2013, dated 2017).)
